Experimental findings from patent publication US12016849B2, “Magnesium picolinate compositions and methods of use” (Bonafide Health, LLC, priority 2016, dated 2024) are described below.

Data set [1] relates to Brain antioxidant enzyme catalase (CAT). Description: Brain antioxidant enzyme activity, commercial assay kit. It is filed as in vivo, Wistar rats. To be noted: rats, 500 mg elemental Mg/kg diet, 8 weeks; compared to magnesium oxide. The method, then:
(§1) Seven male Wistar rats per treatment arm (age: 8 week, weight: 180±20 g) were housed in a controlled environment with a 12:12-h light-dark cycle at 22° C. and were provided with rat chow and water ad libitum. Following a 7-day acclimatization period, animals were randomly be divided into the following groups: • 1. Control (no treatment); • 2. Control+MgO (500 mg elemental Mg/kg diet), • 3. Control+MgPic (500 mg elemental Mg/kg diet), • 4. HFD (fed with high fat diet); • 5. HFD+MgO (500 mg elemental Mg/kg diet), • 6. HFD+MgPic (500 mg elemental Mg/kg diet).
(§2) The MgPic administered was prepared in accordance with the methods of the inventions described herein. […]
(§3) Laboratory Analyses—Following the treatment period, plasma was extracted and used for the determination of glucose, insulin, visceral fat, magnesium, and leptin concentrations, which was performed with an automatic analyzer (Samsung). Brain antioxidant enzyme catalase (CAT) and glutathione peroxidase (GSH-Px) were measured using a commercially available assay kit (Cayman Chemical, Ann Arbor, Mich., USA) according to the manufacturer's instructions. […] The swimming pathway and latency in locating the hidden platform was recorded for each trial. […] All samples were processed to produce clear digests, and the total magnesium in each sample was measured by flame AAS (Perkin Elmer) using established and fully verified methods. […]

Data set [2] relates to glutathione peroxidase (GSH-Px). The description is as above. As to conditions: rats, 500 mg elemental Mg/kg diet, 8 weeks; compared to magnesium oxide. The data set is classed as in vivo, Wistar rats. The method, then:
as §1, §2, §3

Data set [3] can be described thus: Magnesium and picolinic acid AUC0→∞, double-blind clinical study. The data set is classed as in vivo. As to conditions: 500 mg magnesium picolinate vs control 916 mg picolinic acid and 90 mg magnesium. The method, then:
(§4) In a double-blind clinical study, 30 subjects are divided into two groups (n=15). The control group receives a supplement containing 916 mg picolinic acid and 90 mg of magnesium. The trial group receives a supplement containing 500 mg of magnesium picolinate (46 mg of magnesium and 454 mg of picolinate), or one-half the total dose of picolinate and magnesium of the control group. Magnesium and picolinic acid AUC0→∞ (ng·h/mL) are measured in each subject. The mean magnesium and picolinic acid AUC0→∞ for the trial group are between 80-120% of the control group at each time point.

The nature of data set [4]: Magnesium and picolinic acid Cmax and Tmax, double-blind clinical study. The data set is classed as in vivo. As to conditions: 500 mg magnesium picolinate vs control 916 mg picolinic acid and 90 mg magnesium. The method, then:
as §4, with “Cmax (ng/mL) and Tmax (minutes)” for “AUC0→∞ (ng·h/mL)”, “subject. […] Thus, magnesium picolinate provides 80-120% of the maximum serum concentration of magnesium and picolinic acid relative to twice the dose of magnesium alone, or relative to twice the dose of picolinic acid alone.” for “subject.”, “Tmax” for “AUC0→∞”, “50-80%” for “80-120%”, “point. Thus, magnesium picolinate delivers the maximum amount of bioavailable magnesium and picolinic acid in 50-80% less time relative to twice the dose of magnesium alone, or relative to twice the dose of picolinic acid alone.” for “point.”

Data set [5] is described as follows: Solubility of the isolated product. The data set is classed as physicochemical. The method, then:
Picolinic acid (3.7 g, 30 mmol) and magnesium acetate tetrahydrate (3.2 g, 15 mmol) were suspended in 25 mL of water. The slurry was stirred and heated at reflux overnight and then filtered to isolate 1.7 grams of crystalline MgPic. The remaining filtrate was cooled and evaporated to dryness, providing an additional 2.2 grams of amorphous MgPic with traces of residual acetate. The acetate was removed by washing the solid with ethanol to provide a 96% overall yield of MgPic (crystalline and amorphous). The ^1H-NMR spectrum of the product (FIG. 2) is consistent with the spectrum of a metal picolinate salt. […] The product contained acceptable trace levels of barium and other heavy metals of less than 200 ppm of each element tested. As such, embodiments of a MgPic composition may comprise less than about 200 ppm of barium and/or other heavy metals. In some embodiments, these compositions may comprise less than about 150, less than about 100, less than 50, or less than 20 ppm of barium and/or other heavy metals.
Picolinic acid and magnesium oxide (0.5 equiv.) were added to water, giving a white, stirrable slurry. The slurry was heated to 95-100° C. for 3 hours, and more water was added, tripling the initial amount of water [note: the procedure was based on the preparation of a related magnesium salt using magnesium oxide, in which the initial slurry completely dissolved at 80-90° C. […]

A short description of data set [6]: Cerebrospinal fluid (CSF) levels of magnesium and picolinic acid, double-blind clinical study. The data set is classed as in vivo. As to conditions: 500 mg magnesium picolinate vs control 916 mg picolinic acid and 90 mg magnesium; four and eight hours, spinal tap. The method, then:
In a double-blind clinical study, 30 subjects are divided into two groups (n=15). The control group receives a supplement containing 916 mg picolinic acid and 90 mg of magnesium. The trial group receives a supplement containing 500 mg of magnesium picolinate (46 mg of magnesium and 454 mg of picolinate), or one-half the total dose of picolinate and magnesium of the control group. CSF levels of picolinic acid (ng/mL) and serum levels of magnesium (ng/mL) are measured at four hours and eight hours via spinal tap. The mean CSF magnesium levels for the trial group are between 80-120% of the control group at each time point. The mean CSF picolinic acid levels for the trial group are between 80-120% of the control group at each time point. Thus, magnesium picolinate provides 80-120% of the brain penetration of magnesium, and 80-120% of the brain penetration of picolinic acid, relative to twice the dose of magnesium and picolinic acid alone.

Data set [7] has as its system male Wistar rats. Description: Morris water maze. It is filed as in vivo. The method, then:
as §1, §2, §3

Data set [8] has as its system male Wistar rats. Description: Laboratory analyses after 8 weeks of treatment (glucose, insulin, visceral fat, leptin). The data set is classed as in vivo. As to conditions: 500 mg elemental Mg/kg diet, oral. The method, then: as §1
(§5) The MgPic administered was prepared in accordance with the methods of the inventions described herein. All treatments were administered daily as an oral supplement per day for 8 weeks. […] The rats were subjected to several study protocols during the treatment period.
Laboratory Analyses—Following the treatment period, plasma was extracted and used for the determination of glucose, insulin, visceral fat, magnesium, and leptin concentrations, which was performed with an automatic analyzer (Samsung). Brain antioxidant enzyme catalase (CAT) and glutathione peroxidase (GSH-Px) were measured using a commercially available assay kit (Cayman Chemical, Ann Arbor, Mich., USA) according to the manufacturer's instructions. […] Morris Water Maze—The water maze test was performed according to methods known to those of skill in the art. The water maze was conducted in a large circular black pool (160 cm in diameter) containing water (temperature at 24±2° C.) that had been colored with a nontoxic black dye to contrast the rat. A 12-cm-diameter black-colored round platform was placed 1.5 cm below the water surface. All of the rats were placed in the water maze room 1 h before the water maze trial daily. The rats were given a maximum time of 60 s to find the hidden platform, and they were allowed to remain on the platform for 30 s. […] The rats were given a daily session of four trials per day for six consecutive days. The swimming pathway and latency in locating the hidden platform was recorded for each trial. On the seventh day, the time taken to reach the quadrant and the number of crossings of the target quadrant was tested with the platform removed. […] It is noted that rats fed a high fat diet experience diminished memory function. […] Atomic Absorption Spectroscopy—Rat sera, liver, brains were removed and the cerebral cortex and hippocampus were dissected for analysis after the treatment period. The tissues were stored at −70° C. until analysis using atomic absorption spectroscopy (AAS). […] All samples were processed to produce clear digests, and the total magnesium in each sample was measured by flame AAS (Perkin Elmer) using established and fully verified methods. […]

The nature of data set [9]: Total magnesium in rat sera, liver and brain by atomic absorption spectroscopy. To be noted: rats, 500 mg elemental Mg/kg diet, oral, 8 weeks; compared to magnesium oxide and control. It is filed as in vivo, Wistar rats. The method, then:
as §1, §5
Laboratory Analyses—Following the treatment period, plasma was extracted and used for the determination of glucose, insulin, visceral fat, magnesium, and leptin concentrations, which was performed with an automatic analyzer (Samsung). Brain antioxidant enzyme catalase (CAT) and glutathione peroxidase (GSH-Px) were measured using a commercially available assay kit (Cayman Chemical, Ann Arbor, Mich., USA) according to the manufacturer's instructions. […] Morris Water Maze—The water maze test was performed according to methods known to those of skill in the art. The water maze was conducted in a large circular black pool (160 cm in diameter) containing water (temperature at 24±2° C.) that had been colored with a nontoxic black dye to contrast the rat. A 12-cm-diameter black-colored round platform was placed 1.5 cm below the water surface. All of the rats were placed in the water maze room 1 h before the water maze trial daily. […] The swimming pathway and latency in locating the hidden platform was recorded for each trial. […] All samples were processed to produce clear digests, and the total magnesium in each sample was measured by flame AAS (Perkin Elmer) using established and fully verified methods. […]

Data set [10] in a line: Serum levels of magnesium and picolinic acid, double-blind clinical study. It is filed as in vivo. As to conditions: 500 mg magnesium picolinate vs control 916 mg picolinic acid and 90 mg magnesium; at 1, 4, 6 and 8 hours. The method, then: as §4, with “Serum levels of” for “Magnesium and”, “(ng/mL) and serum levels of magnesium (ng/mL)” for “AUC0→∞ (ng·h/mL)”, “at one hour, four hours, six hours, and eight hours.” for “in each subject.”, “mean serum” for “mean”, “levels” for “and picolinic acid AUC0→∞”, “point. The mean serum picolinic acid levels for the trial group are between 80-120% of the control group at each time point.” for “point.”

A short description of data set [11]: Stability of magnesium picolinate (hygroscopicity, storage, light). The data set is classed as physicochemical. From the text: Magnesium picolinate compositions of the invention were stable during storage at room temperature.
Where [12] appears, read: compared to control specimens and those given magnesium oxide.

As for `O=C(O)c1ccccn1` [MgPic, magnesium picolinate], the “brain antioxidant enzyme (CAT) activity (FIG. 7A)” value in [1] was “superior improvements of increasing brain antioxidant enzyme (CAT) activity”. The “brain antioxidant enzyme (GSH-Px) activity (FIG. 7B)” value in [2] is given as “superior improvements of increasing brain antioxidant enzyme (GSH-Px) activity”. Besides, in data set [3], the “mean magnesium AUC0→∞, relative to control group” value is 80-120% and the “mean picolinic acid AUC0→∞, relative to control group” value is 80-120%. Besides, in data set [4], the “mean magnesium Cmax, relative to control group” value is listed as 80-120%; the “mean magnesium Tmax, relative to control group” value was 50-80%; the “mean picolinic acid Cmax, relative to control group” value is listed as 80-120%; the “mean picolinic acid Tmax, relative to control group” value is given as 50-80%. Besides, the solubility in water entry in data set [5] (product of Example 2, clear and colorless solution) is “readily soluble in water”. Moreover, the solubility in ethanol/water result in data set [5] (product of Example 13) was “soluble in ethanol/water”. Also, in data set [6], the “mean CSF magnesium levels, relative to control group” value is 80-120% and the “mean CSF picolinic acid levels, relative to control group” value is given as 80-120%. The “memory function: time taken to reach the quadrant with the hidden platform (FIG. 5)” value in data set [7] (rats fed a high fat diet and rats fed the control diet, 500 mg elemental Mg/kg diet) is recorded as “improved memory function”. Besides, the “memory function (FIG. 6)” value in data set [7] (rats fed a high fat diet, compared to rats administered magnesium oxide) is on record as “improvements”. In addition, in data set [8] (setting [12]), the “glucose (FIG. 4D-4E)” value is on record as “reduced amounts” and the “insulin (FIG. 4D-4E)” value is recorded as “reduced amounts”. Besides, in [8] (compared to magnesium oxide), the “leptin secretion (FIG. 4G)” value is given as “unexpectedly superior reduction of leptin secretion” and the “visceral fat (FIG. 4F)” value was “unexpectedly improved reduction of visceral fat”. In addition, in [9], the “magnesium levels in brain (FIG. 4A-4C)” value was “substantially improved magnesium levels”, the “magnesium levels in liver (FIG. 4A-4C)” value is recorded as “substantially improved magnesium levels” and the “magnesium levels in serum (FIG. 4A-4C)” value is “substantially improved magnesium levels”. Further, in data set [10], the “mean serum magnesium levels, relative to control group” value is listed as 80-120% and the “mean serum picolinic acid levels, relative to control group” value is 80-120%. Moreover, the stability during storage result in data set [11] (25° C./40% relative humidity) is reported as “stable”. Further, the stability during storage entry in data set [11] (40° C./75% relative humidity) is “stable”. The “stability / color change on exposure to light” value in data set [11] (listed as MgPic composition) is given as “stable on exposure to light”. Besides, the stability during storage entry in [11] (room temperature) is on record as “stable”.

As to `O=C(O)c1ccccn1` [amorphous solid, magnesium picolinate], the signs of degradation result was “no signs of degradation” in data set [11] (after 30 days at 75% relative humidity and 40° C.); “no signs of degradation” in [11] (after 60 days at 40% relative humidity and 25° C.). Moreover, the hygroscopicity entry in data set [11] (as measured by weight) is given as “not hygroscopic”. Moreover, the “stability / color change on exposure to light” value in [11] is listed as “did not change color”.
